Like-named read-outs stand apart in the source and are kept apart here.
Experiments:
[1] = molecular target: NS3/NS4 complexes (Hepatitis C virus genotype 1a, UniProt P27958); assay: NS3/NS4 inhibition assay (inhibitory concentrations of test compounds); type: biochemical; details: NS3-NS4 activity; 23° C., pH 7.5, 25 μM NS4A peptide
From the text: (§1) NS3-NS4 inhibition activity can be determined using known assay methods. For example, NS3/NS4 complexes may be formed and inhibitory concentrations of test compounds determined as described in U.S. Patent Application Publication Number 2007/0054842 paragraph numbers 1497-1509, which is incorporated herein by reference in its entirety. Similarly, hepatitis C replicon EC50 may be determined using known assay methods such as described in U.S. Patent Application Publication Number 2007/0054842 paragraph numbers 1510-1515, which is incorporated herein by reference in its entirety. Assays may be conducted at ambient temperature (23° C.) in assay buffer containing 50 mM Tris-HCl, pH 7.5, 15% glycerol, 0.6 mM Lauryldimethylamine Oxide (LDAO), 25 μM NS4A peptide, and 10 mM Dithiothreitol (DTT).

[2] = test system: hepatitis C replicon; assay: hepatitis C replicon EC50 assay; type: cell-based, hepatitis C virus (HCV); details: Hepatitis C virus
From the text: as §1

[3] = rcm bond
[4] = hepatitis C replicon, read-out: EC50

NS3/NS4 complexes, sequence (P27958 1658-1711): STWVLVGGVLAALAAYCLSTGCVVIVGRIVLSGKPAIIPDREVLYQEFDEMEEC
NS3/NS4 complexes, sequence (P27958 1027-1657): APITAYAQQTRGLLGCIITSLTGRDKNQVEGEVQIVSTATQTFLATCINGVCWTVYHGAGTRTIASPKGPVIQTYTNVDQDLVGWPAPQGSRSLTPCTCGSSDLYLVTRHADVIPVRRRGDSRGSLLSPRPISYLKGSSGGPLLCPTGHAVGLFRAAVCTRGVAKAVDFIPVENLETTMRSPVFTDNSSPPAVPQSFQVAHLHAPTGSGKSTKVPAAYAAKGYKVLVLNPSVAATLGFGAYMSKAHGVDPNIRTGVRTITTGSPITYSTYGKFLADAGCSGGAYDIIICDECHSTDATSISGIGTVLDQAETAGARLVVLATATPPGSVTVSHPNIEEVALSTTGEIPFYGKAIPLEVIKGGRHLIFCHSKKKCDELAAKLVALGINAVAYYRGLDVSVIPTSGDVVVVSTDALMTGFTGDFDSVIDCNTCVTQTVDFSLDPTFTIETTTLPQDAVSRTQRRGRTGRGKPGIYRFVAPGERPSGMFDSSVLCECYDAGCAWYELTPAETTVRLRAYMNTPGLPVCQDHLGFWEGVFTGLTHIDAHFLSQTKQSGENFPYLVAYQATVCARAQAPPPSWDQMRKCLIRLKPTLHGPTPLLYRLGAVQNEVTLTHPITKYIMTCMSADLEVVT

Compound | IC50 [1] [nM] | EC50 [2, 4] [nM] | other results
COc1ccc2c(O[C@H]3CN4C(=O)[C@@H](NC(=O)OC(C)(C)C)CCCCC/C=C\[C@@H]5C[C@@]5(C(=O)NS(=O)(=O)C5(C)CC5)NC(=O)[C@@H]4C3(C)C)cc(-c3nc(C(C)C)cs3)nc2c1C [Compound 101] | 10 to 100 | > 100 | –
C=C[C@@H]1C[C@]1(NC(=O)[C@@H]1[C@H](C)[C@@H](Oc2cc(-c3nc(C(C)C)cs3)nc3c(C)c(OC)ccc23)CN1C(=O)[C@@H](NC(=O)OC(C)(C)C)C(C)(C)C)C(=O)NS(=O)(=O)C1(C)CC1 [Compound 204] | < 10 | < 10 | –
C=C[C@@H]1C[C@]1(NC(=O)[C@@H]1[C@H](C)[C@@H](Oc2cc(-c3nc(C(C)C)cs3)nc3c(C)c(OC)ccc23)CN1C(=O)C(N)C(C)(C)C)C(=O)NS(=O)(=O)C1(C)CC1 (some centres unmarked) [Compound 203] | < 10 | 10 to 100 | –
C=C[C@@H]1C[C@]1(NC(=O)[C@@H]1[C@@H](C)[C@@H](Oc2cc(-c3nc(C(C)C)cs3)nc3c(C)c(OC)ccc23)CN1C(=O)[C@@H](N)C(C)(C)C)C(=O)NS(=O)(=O)C1(C)CC1 [Compound 212] | > 100 | – | –
CC(C)n1c(O[C@H]2CN3C(=O)[C@@H](NC(=O)OC(C)(C)C)CCCCCC=C[C@@H]4C[C@@]4(C(=O)NS(=O)(=O)C4(C)CC4)NC(=O)[C@@H]3[C@@H]2C)nc2c(-c3nc(C4CCCCC4)cs3)cccc21 | – | – | ring closure, yield of all isomers ([3]; from C=CCCCCC[C@H](NC(=O)OC(C)(C)C)C(=O)N1C[C@H](Oc2nc3c(-c4nc(C5CCCCC5)cs4)cccc3n2C(C)C)[C@@H](C)[C@H]1C(=O)N[C@]1(C(=O)NS(=O)(=O)C2(C)CC2)C[C@H]1C=C, Zhan catalyst, toluene, 5.16 mM, 65.0 °C, 1.0 h): 53.9%
COc1cnc(O[C@H]2CN3C(=O)[C@@H](NC(=O)OC(C)(C)C)CCCCC/C=C\[C@@H]4C[C@@]4(C(=O)NS(=O)(=O)C4(C)CC4)NC(=O)[C@@H]3[C@@H]2C)c2cc(Cl)ccc12 [Compound 111] | < 10 | < 10 | –
COc1cnc(O[C@H]2CN3C(=O)[C@@H](NC(=O)OC(C)(C)C)CCCCC/C=C\[C@@H]4C[C@@]4(C(=O)O)NC(=O)[C@@H]3[C@@H]2C)c2cc(Cl)ccc12 [Compound 110] | < 10 | > 100 | –
COc1ccc2c(O[C@H]3CN4C(=O)[C@@H](NC(=O)OC(C)(C)C)CCCCCC=C[C@@H]5C[C@@]5(C(=O)NS(=O)(=O)C5(C)CC5)NC(=O)[C@@H]4C3(C)C)cc(-c3nc(C(C)C)cs3)nc2c1C | – | – | ring closure, yield of all isomers ([3]; from C=CCCCCC[C@H](NC(=O)OC(C)(C)C)C(=O)N1C[C@H](Oc2cc(-c3nc(C(C)C)cs3)nc3c(C)c(OC)ccc23)C(C)(C)[C@H]1C(=O)N[C@]1(C(=O)NS(=O)(=O)C2(C)CC2)C[C@H]1C=C, Zhan catalyst, toluene, 5.9 mM, 65.0 °C, 1.33 h): 56%
COc1ccc2c(O[C@H]3CN4C(=O)[C@@H](NC(=O)OC(C)(C)C)CCCCCC=C[C@@H]5C[C@@]5(C(=O)NS(=O)(=O)C5(C)CC5)NC(=O)[C@@H]4[C@H]3C)cc(-c3nc(C(C)C)cs3)nc2c1C | – | – | ring closure, yield of all isomers ([3]; from C=CCCCCC[C@H](NC(=O)OC(C)(C)C)C(=O)N1C[C@H](Oc2cc(-c3nc(C(C)C)cs3)nc3c(C)c(OC)ccc23)[C@H](C)[C@H]1C(=O)N[C@]1(C(=O)NS(=O)(=O)C2(C)CC2)C[C@H]1C=C, Zhan catalyst, 70.0 °C, 0.5 h): 59%
C=C[C@@H]1C[C@]1(NC(=O)[C@@H]1[C@H](C)[C@@H](Oc2ncc(OC)c3ccc(Cl)cc23)CN1C(=O)[C@@H](NC(=O)OC(C)(C)C)C(C)(C)C)C(=O)NS(=O)(=O)C1(C)CC1 [Compound 211] | < 10 | < 10 | –
C=C[C@@H]1C[C@]1(NC(=O)[C@H]1N(C(=O)C(NC(=O)OC(C)(C)C)C(C)(C)C)C[C@H](Oc2cc(-c3nc(C(C)C)cs3)nc3c(C)c(OC)ccc23)C1(C)C)C(=O)NS(=O)(=O)C1(C)CC1 (some centres unmarked) [Compound 202] | > 100 | > 100 | –
CC(C)n1c(O[C@H]2CN3C(=O)[C@@H](NC(=O)OC(C)(C)C)CCCCC/C=C\[C@@H]4C[C@@]4(C(=O)NS(=O)(=O)C4(C)CC4)NC(=O)[C@@H]3[C@@H]2C)nc2c(-c3nc(C4CCCCC4)cs3)cccc21 [Compound 107] | < 10 | 10 to 100 | –
C=C[C@@H]1C[C@]1(NC(=O)[C@@H]1[C@H](C)[C@@H](Oc2ncc(OC)c3ccc(Cl)cc23)CN1C(=O)[C@@H](NC(=O)OC(C)(C)C)C(C)(C)C)C(=O)O [Compound 210] | 10 to 100 | > 100 | –
C=C[C@@H]1C[C@]1(NC(=O)[C@@H]1[C@H](C)[C@@H](Oc2cc(-c3nc(C(C)C)cs3)nc3c(C)c(OC)ccc23)CN1C(=O)[C@@H](N)C(C)(C)C)C(=O)NS(=O)(=O)C1CC1 [Compound 207] | < 10 | > 100 | –
C=C[C@@H]1C[C@]1(NC(=O)[C@@H]1[C@@H](C)[C@@H](Oc2cc(-c3nc(C(C)C)cs3)nc3c(C)c(OC)ccc23)CN1C(=O)[C@@H](NC(=O)OC(C)(C)C)C(C)(C)C)C(=O)NS(=O)(=O)C1(C)CC1 [Compound 208] | 10 to 100 | – | EC50 [2]: > 100 nM
COc1ccc2c(O[C@H]3CN4C(=O)[C@@H](N)CCCCC/C=C\[C@@H]5C[C@@]5(C(=O)NS(=O)(=O)C5(C)CC5)NC(=O)[C@@H]4[C@@H]3C)cc(-c3nc(C(C)C)cs3)nc2c1C [Compound 104] | < 10 | 10 to 100 | –
C=C[C@@H]1C[C@]1(NC(=O)[C@@H]1[C@H](C)[C@@H](Oc2cc(-c3nc(C(C)C)cs3)nc3c(C)c(OC)ccc23)CN1C(=O)[C@@H](Nc1cccc(C(F)(F)F)c1)C(C)(C)C)C(=O)NS(=O)(=O)C1(C)CC1 [Compound 209] | < 10 | 10 to 100 | –
COc1ccc2c(O[C@H]3CN4C(=O)[C@@H](NC(=O)OC(C)(C)C)CCCCC/C=C\[C@@H]5C[C@@]5(C(=O)NS(=O)(=O)C5(C)CC5)NC(=O)[C@@H]4[C@H]3C)cc(-c3nc(C(C)C)cs3)nc2c1C [Compound 106] | 10 to 100 | > 100 | –
COc1ccc2c(O[C@H]3CN4C(=O)[C@@H](NC(=O)OC(C)(C)C)CCCCCC=C[C@@H]5C[C@@]5(C(=O)NS(=O)(=O)C5(C)CC5)NC(=O)[C@@H]4[C@@H]3C)cc(-c3nc(C(C)C)cs3)nc2c1C | – | – | ring closure, yield of all isomers ([3]; from C=CCCCCC[C@H](NC(=O)OC(C)(C)C)C(=O)N1C[C@H](Oc2cc(-c3nc(C(C)C)cs3)nc3c(C)c(OC)ccc23)[C@@H](C)[C@H]1C(=O)N[C@]1(C(=O)NS(=O)(=O)C2(C)CC2)C[C@H]1C=C, Zhan catalyst, toluene, 5.9 mM, 65.0 °C, 0.5 h): 68%
CCOC(=O)[C@@]12C[C@H]1C=CCCCCC[C@H](NC(=O)OC(C)(C)C)C(=O)N1C[C@H](Oc3ncc(OC)c4ccc(Cl)cc34)[C@@H](C)[C@H]1C(=O)N2 | – | – | ring closure, yield of all isomers ([3]; from C=CCCCCC[C@H](NC(=O)OC(C)(C)C)C(=O)N1C[C@H](Oc2ncc(OC)c3ccc(Cl)cc23)[C@@H](C)[C@H]1C(=O)N[C@]1(C(=O)OCC)C[C@H]1C=C, Hoveyda-Grubbs catalyst, 1,2-dichloroethane, 0.8 mM, 12.0 h): 92%
CCOC(=O)[C@@]12C[C@H]1C=CCCCCC[C@H](NC(=O)OC(C)(C)C)C(=O)N1C[C@H](Oc3cc(-c4nc(C(C)C)cs4)nc4c(C)c(OC)ccc34)[C@@H](C)[C@H]1C(=O)N2 | – | – | ring closure, yield of all isomers ([3]; from C=CCCCCC[C@H](NC(=O)OC(C)(C)C)C(=O)N1C[C@H](Oc2cc(-c3nc(C(C)C)cs3)nc3c(C)c(OC)ccc23)[C@@H](C)[C@H]1C(=O)N[C@]1(C(=O)OCC)C[C@H]1C=C, Zhan catalyst, toluene, 11.67 mM, 70.0 °C, 2.0 h): 75%
COc1ccc2c(O[C@H]3CN4C(=O)[C@@H](NC(=O)OC(C)(C)C)CCCCC/C=C\[C@@H]5C[C@@]5(C(=O)NS(=O)(=O)C5(C)CC5)NC(=O)[C@@H]4[C@@H]3C)cc(-c3nc(C(C)C)cs3)nc2c1C [Compound 102] | < 10 | < 10 | –
CC(C)n1c(O[C@H]2CN3C(=O)[C@@H](NC(=O)OC(C)(C)C)CCCCC/C=C\[C@@H]4C[C@@]4(C(=O)NS(=O)(=O)C4CC4)NC(=O)[C@@H]3[C@@H]2C)nc2c(-c3nc(C4CCCCC4)cs3)cccc21 [Compound 109] | < 10 | 10 to 100 | –
C=C[C@@H]1C[C@]1(NC(=O)[C@@H]1[C@H](C)[C@@H](Oc2cc(-c3nc(C(C)C)cs3)nc3c(C)c(OC)ccc23)CN1C(=O)[C@@H](NC(=O)OC(C)(C)C)C(C)(C)C)C(=O)NS(=O)(=O)C1CC1 [Compound 205] | < 10 | < 10 | –
COc1ccc2c(O[C@H]3CN4C(=O)[C@@H](NC(=O)OC(C)(C)C)CCCCC/C=C\[C@@H]5C[C@@]5(C(=O)NS(=O)(=O)C5CC5)NC(=O)[C@@H]4[C@@H]3C)cc(-c3nc(C(C)C)cs3)nc2c1C [Compound 103] | < 10 | < 10 | –
CCOC(=O)[C@@]12C[C@H]1C=CCCCCC[C@H](NC(=O)OC(C)(C)C)C(=O)N1C[C@H](Oc3nc4c(-c5nc(C6CCCCC6)cs5)cccc4n3C(C)C)[C@@H](C)[C@H]1C(=O)N2 | – | – | ring closure, yield of all isomers ([3]; from C=CCCCCC[C@H](NC(=O)OC(C)(C)C)C(=O)N1C[C@H](Oc2nc3c(-c4nc(C5CCCCC5)cs4)cccc3n2C(C)C)[C@@H](C)[C@H]1C(=O)N[C@]1(C(=O)OCC)C[C@H]1C=C, Hoveyda-Grubbs catalyst, 1,2-dichloroethane, 0.96 mM): 83%

Source: patent publication US20120095211A1, “SUBSTITUTED PROLINE INHIBITORS OF HEPATITIS C VIRUS REPLICATION” (InterMune, Inc., priority 2010, published 2012)
